Literature values as cited in US20130108982A1, “Reshapable Device for Fixation at a Dental Site” (COLLDENT Y.A. LTD., priority 2007, published 2013).

Columns and labels:
[1] = tested on: bacteria

Row | Compound | acute lethal dose of fluoride (F) (acute) [mg F/Kg body weight] | chronic toxicity (chronic) [mg F/Kg] | antibacterial activity [1]
1 | F [fluoride] | 33 | 0.1 | 
2 | [F][Sn][F] [stannous fluoride] |  |  | has shown antibacterial activity
